Reference: patent publication US20200286590A1, “SYSTEMS, APPARATUS, AND METHODS FOR GENERATING AND ANALYZING RESISTOME PROFILES” (priority 2014, published 2020)
Values after ≈ are worked out from the molar mass of the structure shown. Read-outs that look alike come from different tables or passages of the source. Values belong to the compound of their own block, whether it stands above or below them.

How the values were obtained:
[1] = system: carbapenem-resistant Enterobacteriaceae; settings: CRE, cited from earlier work
[2] = system: K. pneumoniae isolate 850793; experiment: Minimum inhibitory concentration (MIC) results, isolate 850793; format: cell-based; settings: for MIC: Klebsiella pneumoniae, read-out: MIC Value
Source text: (§1) The ability to view additional or varied information may be set by a user as a preference on a customized basis, or the information may be hidden and made available based on a request or selection from a user according to some embodiments. For example, a display interface may be configured such that the user can make a selection on a short form name or symbol to expand a field or open a new window on the display that provides detailed antibiotic resistance data or other diagnostically useful information for a subject sample. For example, in TABLE 17, the differences in minimum inhibitory concentration (MIC) results for two isolate species are provided.
(§2) In TABLE 18, the isolates are numbered and linked to an isolate species (K. pneumoniae); resistome profiles including the species (K1), phenotype (CRE), genotype (IMP and C1), and profile uniqueness identifiers indicating sequential unique patterns compared to an associated database (1-1 and 2-1, respectively); Acuitas MDRO Gene Test results (IMP(A) and CTX-M(A)); and reported genotypes listed in rank order of clinical importance (IMP-26, CTX-M-15, and SHV-28(u), and IMP-4, CTX-M-15, SHV-1(b), and TEM, respectively). The trailing “1s” in the assigned resistome profiles (i.e., the second digit of each profile uniqueness identifier) reflect the first occurrences of these patterns/profiles derived based on data collected from subject sample measurements. In this example, the tests are not designed to detect SHV, TEM, ACT/MIR, CMY-2, DHA-1, ACT-16, or VEB-1.

[3] = system: K. pneumoniae isolate 850707; experiment: Minimum inhibitory concentration (MIC) results, isolate 850707; format: cell-based; settings: for MIC: Klebsiella pneumoniae, read-out: MIC Value
Source text: as §1, §2

[4] = system: cephalosporin-resistant (3rd or 4th generation) Gram-negative bacillus; settings: CephR-GNB; Revised (M100-S20); cited from earlier work
[5] = system: D-alanyl-D-serine variation of NAM/NAG-peptide subunits; settings: D-alanyl-D-serine versus D-alanyl-D-alanine; cited from earlier work
[6] = system: D-alanyl-D-lactate variation of NAM/NAG-peptide subunits; settings: D-alanyl-D-lactate versus D-alanyl-D-alanine; cited from earlier work
[7] = Isolate No. 850793, K. pneumoniae, IMP-4, CTX-M-15, SHV-1(b), TEM
[8] = Isolate No. 850707, K. pneumoniae, IMP-26, CTX-M-15, SHV-28(u)

Compound: CO/N=C(\C(=O)N[C@@H]1C(=O)N2C(C(=O)O)=C(CSc3nc(=O)c(=O)[nH]n3C)CS[C@H]12)c1csc(N)n1 [Ceftriaxone]
MIC breakpoint, Intermediate ([1]; Revised (M100-S20)): 2 µg/mL (≈ 3.61 µM)
MIC breakpoint, Resistant ([1]; Revised (M100-S20)): ≥4 µg/mL
MIC breakpoint, Susceptible ([1]; Revised (M100-S20)): ≤1 µg/mL

MIC [2, 7]: 8 µg/mL (≈ 26.7 µM)
MIC [3, 8]: 2 µg/mL (≈ 6.68 µM)
Compound: C[C@@H](O)[C@H]1C(=O)N2C(C(=O)O)=C(SCCN=CN)C[C@H]12 [Imipenem]

Compound: CN(C)c1cc(NC(=O)CNC(C)(C)C)c(O)c2c1C[C@H]1C[C@H]3[C@H](N(C)C)C(O)=C(C(N)=O)C(=O)[C@@]3(O)C(O)=C1C2=O [Tigecycline]
MIC [2]: 1 µg/mL (≈ 1.71 µM)
MIC [3]: 2 µg/mL (≈ 3.41 µM)

MIC [2, 7]: 128 µg/mL (≈ 234 µM)
MIC [3, 8]: 16 µg/mL (≈ 29.3 µM)
Compound: CC(C)(O/N=C(\C(=O)N[C@@H]1C(=O)N2C(C(=O)[O-])=C(C[n+]3ccccc3)CS[C@H]12)c1csc(N)n1)C(=O)O [Ceftazidime]
MIC breakpoint, Intermediate ([1]; Revised (M100-S20)): 8 µg/mL (≈ 14.6 µM)
MIC breakpoint, Resistant ([1]; Revised (M100-S20)): ≥16 µg/mL
MIC breakpoint, Susceptible ([1]; Revised (M100-S20)): ≤4 µg/mL
MIC breakpoint, Intermediate [4]: 8 µg/mL (≈ 14.6 µM)
MIC breakpoint, Resistant [4]: ≥16 µg/mL
MIC breakpoint, Susceptible [4]: ≤4 µg/mL

Compound: CO/N=C(\C(=O)N[C@@H]1C(=O)N2C(C(=O)O)=C(COC(C)=O)CS[C@H]12)c1csc(N)n1 [Cefotaxime]
MIC breakpoint, Intermediate ([1]; Revised (M100-S20)): 2 µg/mL (≈ 4.39 µM)
MIC breakpoint, Resistant ([1]; Revised (M100-S20)): ≥4 µg/mL
MIC breakpoint, Susceptible ([1]; Revised (M100-S20)): ≤1 µg/mL

MIC [2, 7]: 1 µg/mL (≈ 2.1 µM)
MIC [3, 8]: 6 µg/mL (≈ 12.6 µM)
Compound: C[C@@H](O)[C@H]1C(=O)N2C(C(=O)O)=C(S[C@@H]3CN[C@H](C(=O)Nc4cccc(C(=O)O)c4)C3)[C@H](C)[C@H]12 [Ertapenem]
MIC breakpoint, Intermediate ([1]; Current Breakpoints (M100-S22)): 1 µg/mL (≈ 2.1 µM)
MIC breakpoint, Resistant ([1]; Current Breakpoints (M100-S22)): ≥2 µg/mL
MIC breakpoint, Susceptible ([1]; Current Breakpoints (M100-S22)): ≤0.5 µg/mL

MIC [2, 7]: 8 µg/mL (≈ 20.9 µM)
MIC [3, 8]: 32 µg/mL (≈ 83.4 µM)
Compound: C[C@@H](O)[C@H]1C(=O)N2C(C(=O)O)=C(S[C@@H]3CN[C@H](C(=O)N(C)C)C3)[C@H](C)[C@H]12 [Meropenem]
MIC breakpoint, Intermediate ([1]; Current Breakpoints (M100-S22)): 2 µg/mL (≈ 5.22 µM)
MIC breakpoint, Resistant ([1]; Current Breakpoints (M100-S22)): ≥4 µg/mL
MIC breakpoint, Susceptible ([1]; Current Breakpoints (M100-S22)): ≤1 µg/mL

MIC [2, 7]: 16 µg/mL (≈ 33.3 µM)
MIC [3, 8]: 16 µg/mL (≈ 33.3 µM)
Compound: CO/N=C(\C(=O)N[C@@H]1C(=O)N2C(C(=O)[O-])=C(C[N+]3(C)CCCC3)CS[C@H]12)c1csc(N)n1 [Cefepime]
MIC breakpoint, Intermediate [4]: 16 µg/mL (≈ 33.3 µM)
MIC breakpoint, Resistant [4]: ≥32 µg/mL
MIC breakpoint, Susceptible [4]: ≤8 µg/mL

Compound: Colistin/TWEEN
MIC Value [2, 7]: 0.12 µg/mL
MIC Value [3, 8]: 0.12 µg/mL

MIC [2, 7]: 32 µg/mL (≈ 54.6 µM)
MIC [3, 8]: 32 µg/mL (≈ 54.6 µM)
Compound: NCC[C@H](O)C(=O)N[C@@H]1C[C@H](N)[C@@H](O[C@H]2O[C@H](CN)[C@@H](O)[C@H](O)[C@H]2O)[C@H](O)[C@H]1O[C@H]1O[C@H](CO)[C@@H](O)[C@H](N)[C@H]1O [Amikacin]

MIC [2, 7]: 0.5 µg/mL (≈ 1.38 µM)
MIC [3, 8]: 1 µg/mL (≈ 2.77 µM)
Compound: C[C@H]1COc2c(N3CCN(C)CC3)c(F)cc3c(=O)c(C(=O)O)cn1c23 [Levofloxacin]

MIC [2, 7]: 32 µg/mL (≈ 91.6 µM)
MIC [3, 8]: 32 µg/mL (≈ 91.6 µM)
Compound: CC1(C)S[C@@H]2[C@H](NC(=O)[C@H](N)c3ccccc3)C(=O)N2[C@H]1C(=O)O [Ampicillin]

MIC [2, 7]: 4 µg/mL (≈ 9.51 µM)
MIC [3, 8]: 32 µg/mL (≈ 76.1 µM)
Compound: C[C@@H](O)[C@H]1C(=O)N2C(C(=O)O)=C(S[C@@H]3CN[C@H](CNS(N)(=O)=O)C3)[C@H](C)[C@H]12 [Doripenem]
MIC breakpoint, Intermediate ([1]; Current Breakpoints (M100-S22)): 2 µg/mL (≈ 4.76 µM)
MIC breakpoint, Resistant ([1]; Current Breakpoints (M100-S22)): ≥4 µg/mL
MIC breakpoint, Susceptible ([1]; Current Breakpoints (M100-S22)): ≤1 µg/mL

Compound: CN[C@H](CC(C)C)C(=O)N[C@H]1C(=O)N[C@@H](CC(N)=O)C(=O)N[C@H]2C(=O)N[C@H]3C(=O)N[C@H](C(=O)N[C@H](C(=O)O)c4cc(O)cc(O)c4-c4cc3ccc4O)[C@H](O)c3ccc(c(Cl)c3)Oc3cc2cc(c3O[C@@H]2O[C@H](CO)[C@@H](O)[C@H](O)[C@H]2O[C@H]2C[C@](C)(N)[C@H](O)[C@H](C)O2)Oc2ccc(cc2Cl)[C@H]1O [vancomycin]
loss of affinity between vancomycin and the peptide [5]: six-fold
decrease in affinity [6]: 1000 fold
